Results reported in patent publication US20120022054A1, “NOVEL SUBSTITUTED ARYL DERIVATIVES, THEIR PROCESS OF PREPARATION AND THEIR THERAPEUTICAL USES AS ANTI-HIV AGENTS” (priority 2008, published 2012).
Read-outs that look alike come from different tables or passages of the source.

Key:
[1] = system: Env-deleted NL4-3 vector virus pseudotyped with the VSV g envelope; test: microbe, parasite or virus in culture; assay type: cell-based, HIV-1; conditions: Vesicular stomatitis virus, NL43, SUP-T1, 48 h, read-out: EC50 for antiviral activity (50% inhibition of luciferase activity)
NL4-3 strain of HIV-1 = test: Multiple cycle infection assay of CAp24 antigen production; assay type: cell-based; conditions: Human immunodeficiency virus 1, NL43, SUP-T1, 96 h, read-out: EC50 for antiviral activity (50% inhibition of CA p24 production)
[2] = multiple cycle infection with NL4-3 virus, SupT1, MT4 or PBMC, MOI 0.01, day 4 and day −6 post-infection, threshold below 5 μM

Structure (SMILES) | EC50 [1] [µM] | EC50 (NL4-3 strain of HIV-1; [2]) [µM] | EC50 (NL4-3 strain of HIV-1) [µM]
COc1ccccc1CN(C)C(=S)CCCSc1ccc(O)cc1 [Example 164, 4-[(4-Hydroxyphenyl)thio]-N-(2-methoxybenzyl)-N-methylbutanethioamide] | < 5 | < 5 | 
C=CCOc1ccc(Cl)cc1CN(C)C(=O)CCCSc1ccc(F)cc1 [Example 101, N-[2-(allyloxy)-5-chlorobenzyl]-4-[(4-fluorophenyl)thio]-N-methylbutanamide] | < 5 | < 5 | 
COc1ccccc1CN(C)C(=O)CCCSc1ccc(NS(C)(=O)=O)cc1 [Example 93, N-(2-Methoxybenzyl)-N-methyl-4-{[4-(methylsulfonylamino)phenyl]thio}butanamide] | < 5 | < 5 | 
COCc1ccccc1CN(C)C(=O)CCCSc1ccc(O)cc1 [Example 65, 4-[(4-Hydroxyphenyl)thio]-N-[2-(methoxymethyl)benzyl]-N-methylbutanamide] | < 5 | < 5 | 
COc1ccc(F)cc1N(C)C(=O)CCCSc1ccc(F)cc1 [Example 102, N-(5-fluoro-2-methoxyphenyl)-4-[(4-fluorophenyl)thio]-N-methylbutanamide] | < 5 | < 5 | 
CN(Cc1ccccc1C1=CCNCC1)C(=O)CCCSc1ccc(O)cc1 [Example 168, 4-[(4-Hydroxyphenyl)thio]-N-methyl-N-[2-(1,2,3,6-tetrahydropyridin-4-yl)benzyl]butanamide] | < 5 |  | < 5
CN(C(=O)CCCSc1ccc(O)cc1)C(c1ccccc1)c1ccccc1 [Example 10, N-Benzhydryl-4-[(4-hydroxyphenyl)thio]-N-methylbutanamide] | < 5 | < 5 | 
COc1ccccc1CN(C)C(=O)CCCSc1ccc(NC(C)=O)cc1 [Example 20, 4-{[4-(Acetylamino)phenyl]thio}-N-(2-methoxybenzyl)-N-methylbutanamide] | < 5 | < 5 | 
COc1ccc2c(ccn2CCCC(=O)N(C)Cc2cc(F)ccc2OC)c1 [Example 109, N-(5-fluoro-2-methoxybenzyl)-4-(5-methoxy-1H-indol-1-yl)-N-methylbutanamide] | < 5 | < 5 | 
CN(Cc1c(F)cccc1Cl)C(=O)CCCSc1ccc(O)cc1 [Example 31, N-(2-chloro-6-fluorobenzyl)-4-[(4-hydroxyphenyl)thio]-N-methylbutanamide] | < 5 | < 5 | 
CC(C)Oc1ccccc1CN(C)C(=O)CCCCc1ccc(O)cc1 [Example 59, 5-(4-Hydroxyphenyl)-N-(2-isopropoxybenzyl)-N-methylpentanamide] | < 5 | < 5 | 
CC(C)Oc1ccccc1CN(C)C(=O)CCCSc1ccc(F)cc1 [Example 50, 4-[(4-Fluorophenyl)thio]-N-(2-isopropoxybenzyl)-N-methylbutanamide] | < 5 | < 5 | 
COc1cccc(CN(C)C(=O)CCCSc2ccc(O)cc2)c1OC [Example 29, N-(2,3-dimethoxybenzyl)-4-[(4-hydroxyphenyl)thio]-N-methylbutanamide] | < 5 | < 5 | 
CN(Cc1ccccc1N1CCN(c2ccc(C(F)(F)F)cn2)CC1)C(=O)CCCNCc1ccc(F)cc1 [Example 80, 4-[(4-Fluorophenyl)methylamino]-N-methyl-N-(2-{4-[5-(trifluoromethyl)pyridin-2-yl]piperazin-1-yl}benzyl)butanamide] | < 5 | < 5 | 
COc1ccc(F)cc1CN(C)C(=O)CCCSc1ccc(C)cc1 [Example 111, N-(5-fluoro-2-methoxybenzyl)-N-methyl-4-[(4-methylphenyl)thio]butanamide] | < 5 | < 5 | 
COc1ccccc1N(C)C(=O)CCCSc1ccc(F)cc1 [Example 126, 4-[(4-Fluorophenyl)thio]-N-(2-methoxyphenyl)-N-methylbutanamide] | < 5 | < 5 | 
COc1ccc(C)cc1CN(C)C(=O)CCCn1ccc2ccc(F)cc21 [Example 121, 4-(6-fluoro-1H-indol-1-yl)-N-(2-methoxy-5-methylbenzyl)-N-methylbutanamide] | < 5 | < 5 | 
CN(Cc1ccccc1N1CCN(CCO)CC1)C(=O)CCCSc1ccc(O)cc1 [Example 73, N-{2-[4-(2-hydroxyethyl)piperazin-1-yl]benzyl}-4-[(4-hydroxyphenyl)thio]-N-methylbutanamide] | < 5 | < 5 | 
COc1ccc(F)cc1CN(C)C(=O)CCCSc1ccc(Cl)cc1 [Example 112, 4-[(4-chlorophenyl)thio]-N-(5-fluoro-2-methoxybenzyl)-N-methylbutanamide] | < 5 | < 5 | 
CN(Cc1ccccc1-c1ccco1)C(=O)CCCSc1ccc(F)cc1 [Example 95, 4-[(4-fluorophenyl)thio]-N-[2-(2-furyl)benzyl]-N-methylbutanamide] | < 5 | < 5 | 
COc1ccc(F)cc1CN(C)C(=O)CCCSc1ccc(CO)cc1 [Example 148, N-(5-fluoro-2-methoxybenzyl)-4-{[4-(hydroxymethyl)phenyl]thio}-N-methylbutanamide] | < 5 | < 5 | 
CN(Cc1ccccc1C(F)(F)F)C(=O)CCCSc1ccc(O)cc1 [Example 15, 4-[(4-Hydroxyphenyl)thio]-N-methyl-N-[2-(trifluoromethyl)benzyl]butanamide] | < 5 | < 5 | 
COC(=O)c1ccc(SCCCC(=O)N(C)Cc2cc(F)ccc2OC)cc1 [Example 147, Methyl 4-({4-[(5-fluoro-2-methoxybenzyl)methylamino]-4-oxobutyl}thio)benzoate] | < 5 | < 5 | 
CN(Cc1cccc2c1OCC2)C(=O)CCCSc1ccc(O)cc1 [Example 22, N-(2,3-Dihydro-1-benzofuran-7-ylmethyl)-4-[(4-hydroxyphenyl)thio]-N-methylbutanamide] | < 5 | < 5 | 
